# Where “and” joins values, the source holds several entries; their conditions need not be identical. Equal values may be shown once.
# Experiments:
# Format in all cases: in vivo, Wistar rats
# [1] = test system: Rats overdosed with ethanol (experimental model for human ALD); assay: Liver markers MDA, GSH and TG in ethanol-fed rats (ALD model); conditions: for GSH / MDA / TG: rat liver, ethanol 30 days
# Procedure: (§1) 6-week old male rats (Wistar rats) were stabilized and then divided into 5 groups with 10 rats per group (n=10). Rats overdosed with ethanol were used as an experimental model for human ALD. Four groups of rats were fed with ethanol at a dose of 6000 mg/kg BW (50% ethanol at 12 ml/kg BW) per day for 30 days. These four groups were divided into positive control, theaflavin (low), theaflavin (mid), and theaflavin (high). Theaflavin (capsule, Xiayie) was also fed to rat at a dose of 83 mg/kg BW (low), 250 mg/kg (mid), and 500 mg/kg (high). In addition, Fifth group was fed with water as a negative control. Animals were sacrificed after the 30-day study and livers were collected for further analyses.
# Three liver markers, i.e., malondialdehyde (MDA, a marker of oxidative stress), glutathione (GSH), and triglyceride (TG) were measured.
# [2] = Body weight, liver weight and liver/body ratio in ethanol-fed rats (ALD model); conditions: ethanol 6000 mg/kg BW per day; for Liver Weight / Liver body ratio: 30 days; for BW (ending): end of 30-day study
# Procedure: as §1
# [3] = test system: Rats overdosed with ethanol (experimental model for human ALD); assay: Liver histopathology (liver cell fat rating, fat color rating) in ethanol-fed rats (ALD model); set-up: Liver cell fat rating / Liver cell fat rating, sum / Fat color rating: scale not given here; conditions: for Fat color rating: n=10; for Liver cell fat rating: individual animals (ID 1-10); for Liver cell fat rating, sum: sum of 10 animals
# Procedure: as §1
structure (smiles),measurement,setting,value
"O=c1c(O)cc([C@H]2Oc3cc(O)cc(O)c3C[C@H]2O)cc2c([C@H]3Oc4cc(O)cc(O)c4C[C@H]3O)cc(O)c(O)c12 [Theaflavin, theaflavin]",GSH,[1]; 83 mg/kg BW theaflavin,13.86 ± 1.80 mg/g
same,MDA,[1]; 83 mg/kg BW theaflavin,1.32 ± 0.13 nmol/mg
same,TG,[1]; 83 mg/kg BW theaflavin,0.62 ± 0.21 mmol/L
same,GSH,[1]; 250 mg/kg BW theaflavin,13.91 ± 1.66 mg/g
same,MDA,[1]; 250 mg/kg BW theaflavin,1.24 ± 0.49 nmol/mg
same,TG,[1]; 250 mg/kg BW theaflavin,0.65 ± 0.14 mmol/L
same,GSH,[1]; 500 mg/kg BW theaflavin,14.43 ± 0.69 mg/g
same,MDA,[1]; 500 mg/kg BW theaflavin,1.23 ± 0.08 nmol/mg
same,TG,[1]; 500 mg/kg BW theaflavin,0.64 ± 0.13 mmol/L
same,MDA when compared to positive controls,[1]; theaflavin (high) 500 mg/kg,lower
same,TG when compared to positive controls,[1]; theaflavin (high) 500 mg/kg,lower
same,MDA when compared to positive controls,[1]; theaflavin (mid) 250 mg/kg,lower
same,TG when compared to positive controls,[1]; theaflavin (mid) 250 mg/kg,lower
same,Liver Weight,[2]; 83 mg/kg BW theaflavin,9.19 ± 0.88 g
same,Liver body ratio,[2]; 83 mg/kg BW theaflavin,2.79 ± 0.22%
same,BW (ending),[2]; 83 mg/kg BW theaflavin,329.1 ± 19.17 g
same,BW (intermediate),[2]; 83 mg/kg BW theaflavin,256.1 ± 21.23 g
same,Liver Weight,[2]; 250 mg/kg BW theaflavin,9.83 ± 1.12 g
same,Liver body ratio,[2]; 250 mg/kg BW theaflavin,2.86 ± 0.23%
same,BW (ending),[2]; 250 mg/kg BW theaflavin,342.9 ± 21.99 g
same,BW (intermediate),[2]; 250 mg/kg BW theaflavin,266.3 ± 17.10 g
same,Liver Weight,[2]; 500 mg/kg BW theaflavin,10.34 ± 1.32 g
same,Liver body ratio,[2]; 500 mg/kg BW theaflavin,2.84 ± 0.27%
same,BW (ending),[2]; 500 mg/kg BW theaflavin,365.2 ± 44.39 g
same,BW (intermediate),[2]; 500 mg/kg BW theaflavin,272.3 ± 17.27 g
same,Fat color rating,[3]; 83 mg/kg BW theaflavin,1.60 ± 0.70
same,Fat color rating,[3]; 250 mg/kg BW theaflavin,1.40 ± 0.70
same,Fat color rating,[3]; 500 mg/kg BW theaflavin,1.30 ± 0.82
same,Liver cell fat rating,"[3]; theaflavin (high) 500 mg/kg, 500 mg/kg",1 (6×) and 0 and 3 and 2 (2×)
same,Liver cell fat rating,"[3]; theaflavin (low) 83 mg/kg BW, 83 mg/kg",1 (5×) and 3 and 2 (4×)
same,Liver cell fat rating,"[3]; theaflavin (mid) 250 mg/kg, 250 mg/kg",1 (4×) and 0 and 2 (5×)
same,"Liver cell fat rating, sum",[3]; theaflavin (high) 500 mg/kg,13
same,"Liver cell fat rating, sum",[3]; theaflavin (low) 83 mg/kg BW,16
same,"Liver cell fat rating, sum",[3]; theaflavin (mid) 250 mg/kg,14
same,Fat color rating compared to positive control,[3]; theaflavin (high) 500 mg/kg,different readings
same,Liver cell fat rating compared to positive control,[3]; theaflavin (high) 500 mg/kg,different readings
same,Fat color rating compared to positive control,[3]; theaflavin (mid) 250 mg/kg,different readings
same,Liver cell fat rating compared to positive control,[3]; theaflavin (mid) 250 mg/kg,different readings
